The values that follow come from patent US20160193216A1 (Nimbus Iris, Inc., priority 2012, published 2016).

Where a name gives a salt, the structure may show the parent alone.

This assay concerns the target T1, IRAK4 (Homo sapiens, UniProt Q9NWZ3).
T1 sequence (Q9NWZ3 1-460): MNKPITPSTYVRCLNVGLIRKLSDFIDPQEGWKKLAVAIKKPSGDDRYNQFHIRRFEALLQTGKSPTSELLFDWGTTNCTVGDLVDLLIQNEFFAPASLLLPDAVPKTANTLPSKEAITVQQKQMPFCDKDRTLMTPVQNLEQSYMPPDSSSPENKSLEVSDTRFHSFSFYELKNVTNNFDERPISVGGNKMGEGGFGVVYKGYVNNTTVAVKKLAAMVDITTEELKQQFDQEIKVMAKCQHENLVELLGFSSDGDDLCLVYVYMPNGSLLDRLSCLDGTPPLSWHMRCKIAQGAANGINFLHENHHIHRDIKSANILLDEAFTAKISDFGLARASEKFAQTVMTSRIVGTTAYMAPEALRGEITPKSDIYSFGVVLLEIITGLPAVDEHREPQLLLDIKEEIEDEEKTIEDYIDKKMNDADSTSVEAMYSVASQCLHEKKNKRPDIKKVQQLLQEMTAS
In words: IRAK-4 activity inhibition assay (Caliper). The format is biochemical. Conditions: 37 μM ATP, 3.5 nM IRAK4. The method, then: A 1× kinase base buffer was prepared from 50 mM HEPES, pH 7.5 and 0.0015% Brij-35. A stop buffer was prepared from 100 mM HEPES, pH 7.5, 0.015% Brij-35, 0.2% Coating Reagent #3, and 50 mM EDTA.
Test compound was diluted to 50× of the final desired highest inhibitor concentration in reaction by 100% DMSO. 100 μl of this compound dilution was transferred to a well in a 96-well plate.
Test compound was serially diluted by transferring 30 μl to 60 μl of 100% DMSO in the next well and so forth for a total of 10 concentrations. 100 μl of 100% DMSO was added to two empty wells for no compound control and no enzyme control in the same 96-well plate.
A new 96-well plate was marked as intermediate plate. 5 μl of compound serial dilution was transferred from source plate to the corresponding wells of the intermediate plate. 45 μl of 1× kinase base buffer (KB buffer) was added to each well of the intermediate plate. The intermediate plate was placed for 10 min on a shaker.
5 μl of each well was transferred from the 96-well intermediate plate to a 384-well plate in duplicates. […] A2 of the 96-well plate is transferred to A3 and A4 of the 384-well plate, and so on.
IRAK4 and DTT in 1× kinase base buffer was added.
Assay plate already contained 5 μl of compound in 10% DMSO. Added 10 μl of 2.5× enzyme solution to each well of the 384-well assay plate, except no enzyme control wells. […] Added 10 μl of 1× kinase base buffer to no enzyme control wells in the assay plate. Incubated at room temperature for 10 min.
Added 10 μl of 2.5× peptide solution to each well of the 384-well assay plate. […] Incubated at 28° C. for 40 minutes. Added 25 μl of stop buffer to stop reaction. Collected data on Caliper.
Copied conversion % data from Caliper program. Converted conversion % values to percent inhibition values. Percent inhibition=(max−conversion %)/(max−min)*100, where “max” means the conversion % of DMSO control and “min” means the conversion % of no enzyme control.
The compound numbers correspond to the compound numbers in Table 1. […] “NA” stands for “not assayed.”
Compound `CN(C)[C@H]1CC[C@H](Nc2ncnc3sc4c(c23)C(CC(=O)N2CCCC2)CC4)CC1` (some centres unmarked) [Compound I-14, 2-(4-(((1r,4r)-4-(dimethylamino)cyclohexyl)amino)-6,7-dihydro-5H-cyclopenta[4,5]thieno[2,3-d]pyrimidin-5-yl)-1-(pyrrolidin-1-yl)ethanone] displayed an IC50 of more than 50 µM. `CN(C)[C@H]1CC[C@H](Oc2ncnc3sc4c(c23)[C@@H](C[C@H](N)C(N)=O)CC4)CC1` [Compound I-160, (2S)-2-amino-3-[(3R)-12-[[4-(dimethylamino)cyclohexyl]oxy]-7-thia-9,11-diazatricyclo[6.4.0.0[2,6]]dodeca-1(8),2(6),9,11-tetraen-3-yl]propanamide] came in with an IC50 of less than 5 µM. Under `CN(C)[C@H]1CC[C@H](Oc2ncnc3sc4c(c23)[C@@H](CC(=O)Nc2ccc(F)cn2)CC4)CC1` [Compound I-37, 2-[(3R)-12-[[4-(dimethylamino)cyclohexyl]oxy]-7-thia-9,11-diazatricyclo[6.4.0.0[2,6]]-dodeca-1(8),2(6),9,11-tetraen-3-yl]-N-(5-fluoropyridin-2-yl)acetamide] stands less than 5 µM; under `CC[C@H](O)C[C@H]1CCc2sc3ncnc(O[C@H]4CC[C@H](N(C)C)CC4)c3c21` [Compound I-107, (2S)-1-[(3R)-12-[[4-(dimethylamino)cyclohexyl]oxy]-7-thia-9,11-diazatricyclo[6.4.0.0[2,6]]dodeca-1(8),2(6),9,11-tetraen-3-yl]butan-2-ol], less than 5 µM; under `NC(=O)C(=O)C[C@H]1CCc2sc3ncnc(OC4CCC(N5CCOCC5)CC4)c3c21` (stereo partly drawn) [Compound I-213, 3-[(3R)-12-[[4-(morpholin-4-yl)cyclohexyl]oxy]-7-thia-9, 11-diazatricyclo[6.4.0.0[2,6]]dodeca-1(8),2(6),9, 11-tetraen-3-yl]-2-oxopropanamide], less than 5 µM.

In the case of `CC[S@@+]([O-])C[C@H]1CCc2sc3ncnc(O[C@H]4CC[C@H](N(C)C)CC4)c3c21` (single isomer, unassigned) [Compound I-46], the IC50 is less than 5 µM. Under `NC(=O)[C@H]1CCc2sc3ncnc(O[C@H]4CC[C@H](N5CCC(F)(F)CC5)CC4)c3c2C1` [Compound I-236, (12S)-3-[[4-(4,4-difluoropiperidin-1-yl)cyclohexyl]oxy]-8-thia-4,6-diazatricyclo[7.4.0.0[2,7]]trideca-1(9),2(7),3,5-tetraene-12-carboxamide] stands less than 5 µM.

Compound `CN(C)[C@H]1CC[C@H](Oc2ncnc3sc4c(c23)[C@@H](C[C@@H](O)c2cc[nH]n2)CC4)CC1` [Compound I-98, (R)-2-((R)-4-(((1r,4R)-4-(dimethylamino)cyclohexyl)oxy)-6,7-dihydro-5H-cyclopenta[4,5]thieno[2,3-d]pyrimidin-5-yl)-1-(1H-pyrazol-3-yl)ethanol] displayed an IC50 of less than 5 µM.

The compound `O=C(O)[C@H]1CCc2sc3ncnc(O[C@H]4CC[C@H](N5CCOCC5)CC4)c3c2C1` [Compound I-234, (12S)-3-[[(1r,4r)-4-(morpholin-4-yl)cyclohexyl]oxy]-8-thia-4,6-diazatricyclo[7.4.0.0[2,7]]trideca-1(9),2(7),3,5-tetraene-12-carboxylic acid] showed an IC50 of less than 5 µM.

Take `CN(C)[C@H]1CC[C@H](Oc2ncnc3sc4c(c23)C[C@@H](CCO)CC4)CC1` [Compound I-111, 2-[(12S)-3-[[4-(dimethylamino)cyclohexyl]oxy]-8-thia-4,6-diazatricyclo[7.4.0.0[2,7]]trideca-1(9),2(7),3,5-tetraen-12-yl]ethan-1-ol formate]: the IC50 is less than 5 µM. For the compound `CN(C)[C@H]1CC[C@H](Oc2ncnc3sc4c(c23)[C@@H](CC(O)c2ncco2)CC4)CC1` (mixture of isomers) [Compound I-60, 2-[(3R)-12-[[4-(dimethylamino)cyclohexyl]oxy]-7-thia-9,11-diazatricyclo[6.4.0.0[2,6]]dodeca-1(8),2(6),9,11-tetraen-3-yl]-1-(1,3-oxazol-2-yl)ethan-1-ol], the IC50 is less than 5 µM.

`CCOC(=O)C1CCc2sc3ncnc(N[C@H]4CC[C@H](N(C)C)CC4)c3c21` (some centres unmarked) [Compound I-1] came in with an IC50 of 5 to 20 µM. The value for `CN(C)[C@H]1CC[C@H](Nc2ncnc3sc4c(c23)C(C)(C)CC4)CC1` [Compound I-6, (1r,4r)-N1-(5,5-dimethyl-6,7-dihydro-5H-cyclopenta[4,5]thieno[2,3-d]pyrimidin-4-yl)-N4,N4-dimethylcyclohexane-1,4-diamine] was 5 to 20 µM; that for `CN(C)[C@H]1CC[C@H](Oc2ncnc3sc4c(c23)[C@@H](CC(O)c2ncco2)CC4)CC1` (stereo in doubt) [Compound I-62, (1S)-2-[(3R)-12-[[4-(dimethylamino)cyclohexyl]oxy]-7-thia-9,11-diazatricyclo[6.4.0.0[2,6]]dodeca-1(8),2(6),9,11-tetraen-3-yl]-1-(1,3-oxazol-2-yl)ethan-1-ol] was less than 5 µM; that for `CN(C1COC1)[C@H]1CC[C@H](Oc2ncnc3sc4c(c23)[C@@H](CC(N)=O)CC4)CC1` [Compound I-129, 2-((R)-4-(((1r,4R)-4-(methyl(oxetan-3-yl)amino)cyclohexyl)oxy)-6,7-dihydro-5H-cyclopenta[4,5]thieno[2,3-d]pyrimidin-5-yl)acetamide] was less than 5 µM.

As to `NC(=O)[C@H](O)C[C@H]1CCc2sc3ncnc(O[C@H]4CC[C@H](N)CC4)c3c21` [Compound I-138, (R)-3-((R)-4-(((1 r,4R)-4-aminocyclohexyl)oxy)-6,7-dihydro-5H-cyclopenta[4,5]thieno[2,3-d]pyrimidin-5-yl)-2-hydroxypropanamide], the IC50 is less than 5 µM. Under `CN(C)[C@H]1CC[C@H](Oc2ncnc3sc4c(c23)CN(C(N)=O)CC4)CC1` [Compound I-201, 3-[[4-(dimethylamino)cyclohexyl]oxy]-8-thia-4,6, 12-triazatricyclo[7.4.0.0[2,7]]trideca-1(9),2,4,6-tetraene-12-carboxamide] stands less than 5 µM. The value for `CN(C)[C@]1(C)CC[C@@H](Oc2ncnc3sc4c(c23)[C@@H](CC(N)=O)CC4)CC1` [Compound I-155, 2-[(3R)-12-[[4-(dimethylamino)-4-methylcyclohexyl]oxy]-7-thia-9,11-diazatricyclo[6.4.0.0[2,6]]dodeca-1(8),2(6),9,11-tetraen-3-yl]acetamide] was less than 5 µM; that for `C[C@@H](O)CNC(=O)C[C@H]1CCc2sc3ncnc(O[C@H]4CC[C@H](N(C)C)CC4)c3c21` [Compound I-141, 2-((R)-4-(((1r,4R)-4-(dimethylamino)cyclohexyl)oxy)-6,7-dihydro-5H-cyclopenta[4,5]thieno[2,3-d]pyrimidin-5-yl)-N—((R)-2-hydroxypropyl)acetamide] was 5 to 20 µM. The value for `CCCOC(=O)N1CCc2sc3ncnc(N[C@H]4CC[C@H](N5CCOCC5)CC4)c3c2C1` [Compound I-186, propyl 3-[[4-(morpholin-4-yl)cyclohexyl]amino]-8-thia-4,6, 12-triazatricyclo[7.4.0.0[2,7]]trideca-1(9),2(7),3,5-tetraene-12-carboxylate] was less than 5 µM. Regarding `CN[C@H]1CC[C@H](Oc2ncnc3sc4c(c23)[C@@H](C[C@H]2NC(=O)NC2=O)CC4)CC1` [Compound I-159, (5R)-5-[[(3R)-12-[[4-(methylamino)cyclohexyl]oxy]-7-thia-9,11-diazatricyclo[6.4.0.0[2,6]]dodeca-1(8),2(6),9,11-tetraen-3-yl]methyl]imidazolidine-2,4-dione], the IC50 was less than 5 µM. `NC(=O)C[C@H]1CCc2sc3ncnc(O[C@H]4CC[C@H](N5CC6(COC6)C5)CC4)c3c21` [Compound I-152, 2-[(3R)-12-[(4-[2-oxa-6-azaspiro[3.3]heptan-6-yl]cyclohexyl)oxy]-7-thia-9,11-diazatricyclo[6.4.0.0[2,6]]dodeca-1(8),2(6),9,11-tetraen-3-yl]acetamide]: the IC50 was less than 5 µM. For the compound `CN(C)[C@H]1CC[C@H](Oc2ncnc3sc4c(c23)[C@@H](COCC(N)=O)CC4)CC1` [Compound I-76, 2-[[(3S)-12-[[4-(dimethylamino)cyclohexyl]oxy]-7-thia-9,11-diazatricyclo[6.4.0.0[2,6]]dodeca-1(8),2(6),9,11-tetraen-3-yl]methoxy]acetamide], the IC50 is less than 5 µM.

The term IC50 denotes the concentration needed to halve the response being measured.
